Assay results: ChEMBL document CHEMBL4043145, “Pyridine-pyrimidine amides that prevent HGF-induced epithelial scattering by two distinct mechanisms” (Bioorg Med Chem Lett, 2017)

Key:
Assay type in all cases: functional
A2780 [1] = experiment: Induction of apoptosis in human A2780 cells assessed as viable cells at 300 nM by 7-AAD/Annexin staining-based assay (reference value: 95 to 96.7%); conditions: read-out: Activity
MFE-280 [2] = experiment: Induction of apoptosis in human MFE280 cells assessed as viable cells at 300 nM by 7-AAD/Annexin staining-based assay (reference value: 84.9 to 87.7%); conditions: read-out: Activity
MCF7 [3] = experiment: Induction of apoptosis in human MCF7 cells assessed as viable cells at 100 nM by 7-AAD/Annexin staining-based assay (reference value: 92.6 to 96.8%); conditions: read-out: Activity
A2780 [4] = experiment: Induction of apoptosis in human A2780 cells assessed as nuclear debris at 1000 nM by 7-AAD/Annexin staining-based assay (reference value: 0.3 to 1.1%)
PC-3 [5] = experiment: Cell cycle arrest in human p53-null PC3 cells assessed as accumulation at G1 phase at 100 nM (reference value: 50.77 to 51.16%)
MCF7 [6] = experiment: Induction of apoptosis in human MCF7 cells assessed as early apoptotic cells at 300 nM by 7-AAD/Annexin staining-based assay (reference value: 2 to 2.7%)
T47D [7] = experiment: Induction of apoptosis in human T47D cells assessed as early apoptotic cells at 100 nM by 7-AAD/Annexin staining-based assay (reference value: 1.6 to 4.3%)
MCF7 [8] = experiment: Induction of apoptosis in human MCF7 cells assessed as early apoptotic cells at 1000 nM by 7-AAD/Annexin staining-based assay (reference value: 2 to 2.7%)
MCF7 [9] = experiment: Induction of apoptosis in human MCF7 cells assessed as viable cells at 1000 nM by 7-AAD/Annexin staining-based assay (reference value: 92.6 to 96.8%); conditions: read-out: Activity
MFE-280 [10] = experiment: Induction of apoptosis in human MFE280 cells assessed as viable cells at 1000 nM by 7-AAD/Annexin staining-based assay (reference value: 84.9 to 87.7%); conditions: read-out: Activity
MFE-296 [11] = experiment: Induction of apoptosis in human MFE296 cells assessed as nuclear debris at 100 nM by 7-AAD/Annexin staining-based assay (reference value: 0.4 to 0.8%)
MFE-280 [12] = experiment: Induction of apoptosis in human MFE280 cells assessed as early apoptotic cells at 100 nM by 7-AAD/Annexin staining-based assay (reference value: 5.1 to 6.2%)
PC-3 [13] = experiment: Cell cycle arrest in human p53-null PC3 cells assessed as accumulation at S phase at 100 nM (reference value: 29.08 to 29.33%)
MCF7 [14] = experiment: Induction of apoptosis in human MCF7 cells assessed as late apoptotic cells at 300 nM by 7-AAD/Annexin staining-based assay (reference value: 1 to 2.1%)
MFE-296 [15] = experiment: Induction of apoptosis in human MFE296 cells assessed as early apoptotic cells at 300 nM by 7-AAD/Annexin staining-based assay (reference value: 1.5 to 2.1%)
PC-3 [16] = experiment: Induction of apoptosis in human p53-null PC3 cells assessed as late apoptotic cells at 1000 nM by 7-AAD/Annexin staining-based assay (reference value: 0.4 to 1.6%)
MCF7 [17] = experiment: Induction of apoptosis in human MCF7 cells assessed as late apoptotic cells at 100 nM by 7-AAD/Annexin staining-based assay (reference value: 1 to 2.1%)
MFE-296 [18] = experiment: Induction of apoptosis in human MFE296 cells assessed as viable cells at 100 nM by 7-AAD/Annexin staining-based assay (reference value: 90.9 to 94.4%); conditions: read-out: Activity
PC-3 [19] = experiment: Induction of apoptosis in human p53-null PC3 cells assessed as nuclear debris at 300 nM by 7-AAD/Annexin staining-based assay (reference value: 0.1 to 0.5%)
A2780 [20] = experiment: Induction of apoptosis in human A2780 cells assessed as early apoptotic cells at 1000 nM by 7-AAD/Annexin staining-based assay (reference value: 1.7 to 2.1%)
T47D [21] = experiment: Cell cycle arrest in human T47D cells assessed as accumulation at G1 phase at 1000 nM (reference value: 45.5 to 57.8%)
MFE-296 [22] = experiment: Induction of apoptosis in human MFE296 cells assessed as early apoptotic cells at 100 nM by 7-AAD/Annexin staining-based assay (reference value: 1.5 to 2.1%)
MCF7 [23] = experiment: Cell cycle arrest in human MCF7 cells assessed as accumulation at G2/M phase at 300 nM (reference value: 20.06 to 22.33%)
A2780 [24] = experiment: Induction of apoptosis in human A2780 cells assessed as viable cells at 100 nM by 7-AAD/Annexin staining-based assay (reference value: 95 to 96.7%); conditions: read-out: Activity
A2780 [25] = experiment: Induction of apoptosis in human A2780 cells assessed as viable cells at 1000 nM by 7-AAD/Annexin staining-based assay (reference value: 95 to 96.7%); conditions: read-out: Activity
MFE-296 [26] = experiment: Cell cycle arrest in human MFE296 cells assessed as accumulation at G1 phase at 300 nM (reference value: 61.05 to 64.87%)
A2780 [27] = experiment: Induction of apoptosis in human A2780 cells assessed as late apoptotic cells at 1000 nM by 7-AAD/Annexin staining-based assay (reference value: 1.2 to 2.2%)
A2780 [28] = experiment: Induction of apoptosis in human A2780 cells assessed as early apoptotic cells at 300 nM by 7-AAD/Annexin staining-based assay (reference value: 1.7 to 2.1%)
T47D [29] = experiment: Induction of apoptosis in human T47D cells assessed as viable cells at 300 nM by 7-AAD/Annexin staining-based assay (reference value: 74.5 to 94.5%); conditions: read-out: Activity
PC-3 [30] = experiment: Induction of apoptosis in human p53-null PC3 cells assessed as viable cells at 300 nM by 7-AAD/Annexin staining-based assay (reference value: 96.5 to 98.6%); conditions: read-out: Activity
MFE-296 [31] = experiment: Induction of apoptosis in human MFE296 cells assessed as viable cells at 300 nM by 7-AAD/Annexin staining-based assay (reference value: 90.9 to 94.4%); conditions: read-out: Activity
T47D [32] = experiment: Induction of apoptosis in human T47D cells assessed as nuclear debris at 100 nM by 7-AAD/Annexin staining-based assay (reference value: 0.2 to 7.7%)
MFE-296 [33] = experiment: Induction of apoptosis in human MFE296 cells assessed as viable cells at 1000 nM by 7-AAD/Annexin staining-based assay (reference value: 90.9 to 94.4%); conditions: read-out: Activity
PC-3 [34] = experiment: Induction of apoptosis in human p53-null PC3 cells assessed as early apoptotic cells at 1000 nM by 7-AAD/Annexin staining-based assay (reference value: 0.6 to 1.4%)
A2780 [35] = experiment: Induction of apoptosis in human A2780 cells assessed as late apoptotic cells at 300 nM by 7-AAD/Annexin staining-based assay (reference value: 1.2 to 2.2%)
A2780 [36] = experiment: Cell cycle arrest in human A2780 cells assessed as accumulation at G1 phase at 100 nM (reference value: 55.26 to 55.66%)

| Structure (SMILES) | viability at 0.3 µM (A2780 [1]) | viability at 0.3 µM (MFE-280 [2]) | viability at 0.1 µM (MCF7 [3]) | Activity (A2780 [4]) | Activity (MCF7 [6]) | Activity (T47D [7]) | Activity (MCF7 [8]) | viability at 1 µM (MCF7 [9]) | viability at 1 µM (MFE-280 [10]) | Activity (MFE-296 [11]) | Activity (MCF7 [14]) | Activity (MFE-296 [15]) | Activity (PC-3 [16]) | Activity (MCF7 [17]) | viability at 0.1 µM (MFE-296 [18]) | Activity (PC-3 [19]) | Activity (A2780 [20]) | Activity (MFE-296 [22]) | viability at 0.1 µM (A2780 [24]) | viability at 1 µM (A2780 [25]) | further results |
| --- | --- | --- | --- | --- | --- | --- | --- | --- | --- | --- | --- | --- | --- | --- | --- | --- | --- | --- | --- | --- | --- |
| O=C(Nc1ccc(-c2cccc(Cl)c2)cn1)c1cncnc1 | 92.1% | 84.4% | 94.4% | 1.4% | 4.1% | 5.1% | 3.3% | 94% | 85.1% | 1.3% | 3.1% | 2.8% | 1.2% | 1.9% | 90.9% | 0.2% | 4.5% | 2.1% | 92.7% | 90% | Activity (PC-3 [5]): 51.5%; Activity (MFE-280 [12]): 4.9%; Activity (PC-3 [13]): 22.12%; Activity (T47D [21]): 31.65%; Activity (MCF7 [23]): 32.59%; Activity (MFE-296 [26]): 13.78%; Activity (A2780 [27]): 4.1%; Activity (A2780 [28]): 3.5%; viability at 0.3 µM (T47D [29]): 86.5%; viability at 0.3 µM (PC-3 [30]): 98.2%; viability at 0.3 µM (MFE-296 [31]): 86.5%; Activity (T47D [32]): 0.2%; viability at 1 µM (MFE-296 [33]): 84.3%; Activity (PC-3 [34]): 1.3%; Activity (A2780 [35]): 3.5%; Activity (A2780 [36]): 58.01% |
| CN[C@@H]1C[C@H]2O[C@@](C)([C@@H]1OC)n1c3ccccc3c3c4c(c5c6ccccc6n2c5c31)C(=O)NC4 [STAUROSPORINE] | 87.1% | 57% | 93% | 4.3% | 7.4% | 2.5% | 3.5% | 62.1% | 47.5% | 2.4% | 7.9% | 6.8% | 1.2% | 3.1% | 83.6% | 0.1% | 5.1% | 7.5% | 90.5% | 57.8% | Activity (A2780 [27]): 32.8%; Activity (A2780 [28]): 3.4%; viability at 0.3 µM (T47D [29]): 90.6%; viability at 0.3 µM (PC-3 [30]): 98.6%; viability at 0.3 µM (MFE-296 [31]): 57.2%; Activity (T47D [32]): 0.1%; viability at 1 µM (MFE-296 [33]): 20.2%; Activity (PC-3 [34]): 1.3%; Activity (A2780 [35]): 8.5% |
